melting point	SMILES
291 to 293 °C	O=C1N=C(N2CCN(c3cccc(C(F)(F)F)c3)CC2)S/C1=C\c1cccc(-c2cc(F)c(O)c(C34CC5CC(CC(C5)C3)C4)c2)c1 [Compound 19, 5-[3-(3-Adamantan-1-yl-4-hydroxy-5-fluoro-phenyl)benzylidene]-2-[4-(3-trifluoromethyl-phenyl)-piperazon-1-yl]-thiazol-4-one]
303 to 308 °C	NNC1=NC(=O)/C(=C/c2cccc(-c3cc(F)c(O)c(C45CC6CC(CC(C6)C4)C5)c3)c2)S1 [Compound 74, 5-[3-(3-Adamantan-1-yl-4-hydroxy-5-fluorophenyl)benzylidene]-2-hydrazino-thiazol-4-one]
226 to 228 °C	CN1CCN(C2=NC(=O)/C(=C/c3cccc(-c4cc(F)c(O)c(C56CC7CC(CC(C7)C5)C6)c4)c3)S2)CC1 [Compound 9, 5-[3-(3-Adamantan-1-yl-4-hydroxy-5-fluoro-phenyl)benzylidene]-2-(4-methyl-piperazin-1-yl)-thiazol-4-one]
327 to 329 °C	Cc1cc(O)c(C23CC4CC(CC(C4)C2)C3)cc1-c1cccc(/C=C2\SC(N3CCOCC3)=NC2=O)c1 [Compound 33, 5-[3-(3-Adamantan-1-yl-4-hydroxy-6-methyl-phenyl)benzylidene]-2-morpholin-4-yl-thiazol-4-one]
286 to 288 °C	CONC1=NC(=O)/C(=C/c2cccc(-c3cc(F)c(O)c(C45CC6CC(CC(C6)C4)C5)c3)c2)S1 [Compound 71, 5-[3-(3-Adamantan-1-yl-4-hydroxy-5-fluorophenyl)benzylidene]-2-methoxyamino-thiazol-4-one]
355 to 360 °C	COc1ccc(-c2ccc(O)c(C34CC5CC(CC(C5)C3)C4)c2)cc1/C=C1\SC(N2CCOCC2)=NC1=O [Compound 86, 5-[3-(3-Adamantan-1-yl-4-hydroxy-phenyl)-6-methoxy-benzylidene]-2-morpholin-4-yl-thiazol-4-one]
284 to 286 °C	O=C1N=C(N2CCCCCCC2)S/C1=C\c1cccc(-c2ccc(O)c(C34CC5CC(CC(C5)C3)C4)c2)c1 [Compound 16, 5-[3-(3-Adamantan-1-yl-4-hydroxy-phenyl)benzylidene]-2-azocan-1-yl-thiazol-4-one]
180 to 193 °C	O=C1N=C(NCCN2CCOCC2)S/C1=C\c1cccc(-c2cc(F)c(O)c(C34CC5CC(CC(C5)C3)C4)c2)c1 [Compound 24, 5-[3-(3-Adamantan-1-yl-4-hydroxy-5-fluoro-phenyl)benzylidene]-2-(2-morpholino-1-yl-ethylamino)-thiazol-4-one]
275 to 277 °C	CCN(CC)C1=NC(=O)/C(=C/c2cccc(-c3ccc(O)c(C45CC6CC(CC(C6)C4)C5)c3)c2)S1 [Compound 10, 5-[3-(3-Adamantan-1-yl-4-hydroxy-phenyl)benzylidene]-2-diethylamino-thiazol-4-one]
294 to 298 °C	CN(C)c1ccc(/C=C2\SC(N3CCCC3)=NC2=O)cc1-c1cc(F)c(O)c(C23CC4CC(CC(C4)C2)C3)c1 [Compound 61, 5-[3-(3-Adamantan-1-yl-4-hydroxy-5-fluoro-phenyl)-4-dimethylamino-benzylidene]-2-pyrrolidin-1-yl-thiazol-4-one]
230 to 233 °C	O=C1N=C(N2CCNCC2)S/C1=C\c1cccc(-c2cc(F)c(O)c(C34CC5CC(CC(C5)C3)C4)c2)c1 [Compound 31, 5-[3-(3-Adamantan-1-yl-4-hydroxy-5-fluoro-phenyl)benzylidene]-2piperazin-1-yl-thiazol-4-one]
135 to 138 °C	O=C1N=C(N2CCCCC2)S/C1=C\c1cccc(-c2ccc(O)c(C(=O)c3ccccc3)c2)c1 [Compound 26, 5-[3-(3-Benzoyl-4-hydroxy-phenyl)benzylidene]-2-piperidin-1-yl-thiazol-4-one]
283 to 285 °C	O=C1N=C(N2CCOCC2)S/C1=C\c1ccc(-c2ccnc(C34CC5CC(CC(C5)C3)C4)n2)cc1 [Compound 41, 5-[4-(2-Adamantan-1-yl-pyrimidin-4-yl)-benzylidene]-2-morpholin-4-yl-thiazol-4-one]
262 to 264 °C	C[C@H]1CN(C2=NC(=O)/C(=C/c3cccc(-c4cc(F)c(O)c(C56CC7CC(CC(C7)C5)C6)c4)c3)S2)C[C@H](C)O1 (relative stereo) [Compound 50, 5-[3-(3-Adamantan-1-yl-4-hydroxy-5-fluoro-phenyl)benzylidene]-2-(trans-2,6-dimethylmorpholin-4-yl)-thiazol-4-one]
293 to 296 °C	O=C1N=C(NN2CCCC2)S/C1=C\c1cccc(-c2cc(F)c(O)c(C34CC5CC(CC(C5)C3)C4)c2)c1 [Compound 69, 5-[3-(3-Adamantan-1-yl-4-hydroxy-5-fluoro-phenyl)benzylidene]-2-(pyrrolidin-1-ylamino)-thiazol-4-one]
238 to 240 °C	O=C1N=C(NO)S/C1=C\c1cccc(-c2cc(F)c(O)c(C34CC5CC(CC(C5)C3)C4)c2)c1 [Compound 52, 5-[3-(3-Adamantan-1-yl-4-hydroxy-5-fluorophenyl)benzylidene]-2-hydroxyamino-thiazol-4-one]
154 to 157 °C	O=C1N=C(N2CCC2)S/C1=C\c1cccc(-c2cc(F)c(O)c(C34CC5CC(CC(C5)C3)C4)c2)c1 [Compound 108]

melting point	SMILES
230 to 233 °C	CC1(C)COc2ccc(-c3cncc(/C=C4\SC(N5CCOCC5)=NC4=O)c3)cc21 [Compound 82, 5-[5-(3,3-Dimethyl-2,3-dihydro-benzofuran-5-yl)-pyridin-3-ylmethylene]-2-morpholin-4-yl-thiazol-4-one]
234 to 236 °C	NC(=O)NNC1=NC(=O)/C(=C/c2cccc(-c3cc(F)c(O)c(C45CC6CC(CC(C6)C4)C5)c3)c2)S1 [Compound 72, 5-[3-(3-Adamantan-1-yl-4-hydroxy-5-fluorophenyl)benzylidene]-2-semicarbazid-1-yl-thiazol-4-one]
309 to 311 °C	O=C1N=C(N2CCCC2)S/C1=C\c1cccc(-c2cc(F)c(O)c(C34CC5CC(CC(C5)C3)C4)c2)c1 [Compound 13, 5-[3-(3-Adamantan-1-yl-4-hydroxy-5-fluoro-phenyl)benzylidene]-2-pyrrolidine-1-yl-thiazol-4-one-thiazol-4-one]
233 to 235 °C	O=C1N=C(N2CCOCC2)S/C1=C\c1cccc(-c2ccc(O)c(F)c2)c1 [Compound 64, 5-[3-(3-Fluoro-4-hydroxy-phenyl)-benzylidene]-2-morpholin-4-yl-thiazol-4-one]
288 to 290 °C	N=C(N)NC1=NC(=O)/C(=C/c2cccc(-c3cc(F)c(O)c(C45CC6CC(CC(C6)C4)C5)c3)c2)S1 [Compound 70, 5-[3-(3-Adamantan-1-yl-4-hydroxy-5-fluorophenyl)benzylidene]-2-(N-guanidinyl)-thiazol-4-one]
195 to 198 °C	O=C1N=C(N2CCC[C@H]2C(=O)O)S/C1=C\c1cccc(-c2cc(F)c(O)c(C34CC5CC(CC(C5)C3)C4)c2)c1 [Compound 53, 5-[3-(3-Adamantan-1-yl-4-hydroxy-5-fluoro-phenyl)benzylidene]-2-(2-(S)-carboxy-1-yl)-thiazol-4-one]
238 °C	O=C1N=C(N2CCOCC2)S/C1=C\c1ccc(OC(F)(F)F)c(-c2cc(F)c(O)c(C34CC5CC(CC(C5)C3)C4)c2)c1 [Compound 62, 5-[3-(3-Adamantan-1-yl-4-hydroxy-5-fluoro-phenyl)-4-trifluoromethoxy-benzylidene]-2-morpholin-4-yl-thiazol-4-one]
304 to 309 °C	O=C1N=C(NN2CCOCC2)S/C1=C\c1cccc(-c2cc(F)c(O)c(C34CC5CC(CC(C5)C3)C4)c2)c1 [Compound 73, 5-[3-(3-Adamantan-1-yl-4-hydroxy-5-fluorophenyl)benzylidene]-2-(morpholin-4-yl-amino)-thiazol-4-one]
306 to 310 °C	O=C1N=C(N2CCOCC2)S/C1=C\c1cc(-c2ccc(O)c(C34CC5CC(CC(C5)C3)C4)c2)c(O)cc1O [Compound 104, 5-[3-(3-Adamantan-1-yl-4-hydroxy-phenyl)-4,6-dihydroxy-benzylidene]-2-morpholin-4yl-thiazol-4-one]
291 to 294 °C	CN1CCN(C2=NC(=O)/C(=C/c3cccc(-c4ccc(O)c(C56CC7CC(CC(C7)C5)C6)c4)c3)S2)CC1 [Compound 8, 5-[3-(3-Adamantan-1-yl-4-hydroxy-phenyl)benzylidene]-2-(4-methyl-piperazin-1-yl)-thiazol-4-one]
164 to 168 °C	O=C1N=C(N2CCC[C@@H]2C(=O)O)S/C1=C\c1cccc(-c2cc(F)c(O)c(C34CC5CC(CC(C5)C3)C4)c2)c1 [Compound 76, 5-[3-(3-Adamantan-1-yl-4-hydroxy-5-fluoro-phenyl)benzylidene]-2-(2-(R)-carboxy-1-yl)-thiazol-4-one]
325 to 328 °C	O=C1N=C(N2CCCCC2)S/C1=C\c1ccc(-c2ccc(O)c(C34CC5CC(CC(C5)C3)C4)c2)cc1 [Compound 4, 5-[4-(3-Adamantan-1-yl-4-hydroxy-phenyl)benzylidene]-2-piperidin-1yl-thiazol-4-one]
270 to 271 °C	CSC1=NC(=O)/C(=C/c2cccc(-c3cc(F)c(O)c(C45CC6CC(CC(C6)C4)C5)c3)c2)S1 [Compound 51, 5-[3-(3-Adamantan-1-yl-4-hydroxy-5-fluorophenyl)benzylidene]-2-methylsulfanyl-thiazol-4-one]
325 to 328 °C	O=C1N=C(N2CCOCC2)S/C1=C\c1cccc(-c2ccc(O)c(C34CC5CC(CC(C5)C3)C4)c2)c1 [Compound 2, 5-[3-(3-Adamantan-1-yl-4-hydroxy-phenyl)benzylidene]-2-morpholin-4-yl-thiazol-4-one]
312 to 315 °C	O=C1N=C(N2CCCC2)S/C1=C\c1ccc(-c2cc(F)c(O)c(C34CC5CC(CC(C5)C3)C4)c2)s1 [Compound 59, 5-[5-(3-Adamantan-1-yl-4-hydroxy-5-fluoro-phenyl)-thiophene-2-yl-methylene]-2-pyrrolidine-1-yl-thiazol-4-one]
242 to 246 °C	CN(C)CCN(Cc1ccccc1)C1=NC(=O)/C(=C/c2cccc(-c3cc(F)c(O)c(C45CC6CC(CC(C6)C4)C5)c3)c2)S1 [Compound 20, 5-[3-(3-Adamantan-1-yl-4-hydroxy-5-fluoro-phenyl)benzylidene]-2[benzyl-(2-dimethylamino-ethyl)-amino]-thiazol-4-one]
